Measurements reported in ChEMBL document CHEMBL5608215, “Development of amphipathic derivatives of thymol and carvacrol as potent broad-spectrum antibacterial agents” (Eur J Med Chem, 2024).
In brackets after ≈: the same amount, converted by molar mass.

Tests used:
Type in all cases: functional
Enterococcus = assay: Antibacterial activity against vancomycin-resistant Enterococcus ATCC51299 by CLSI based serial dilution method
Pseudomonas aeruginosa = assay: Antibacterial activity against Pseudomonas aeruginosa ATCC27853 by CLSI based serial dilution method
Enterococcus faecalis = assay: Antibacterial activity against Enterococcus faecalis ATCC29212 by CLSI based serial dilution method
Staphylococcus aureus [1] = assay: Antibacterial activity against methicillin-resistant Staphylococcus aureus 21-5 by CLSI based serial dilution method
Staphylococcus aureus [2] = assay: Antibacterial activity against Staphylococcus aureus ATCC29213 by CLSI based serial dilution method
Escherichia coli = assay: Antibacterial activity against Escherichia coli ATCC25922 by CLSI based serial dilution method

SMILES | MIC (Enterococcus) | MIC (Pseudomonas aeruginosa) | MIC (Enterococcus faecalis) | MIC (Staphylococcus aureus [1]) | MIC (Staphylococcus aureus [2]) | MIC (Escherichia coli)
Cc1ccc(C(C)C)c(OCCC[N+](C)(C)CC(=O)N2CCSCC2)c1.[Br-] | > 128 µg/mL | > 128 µg/mL | 128 µg/mL | 64 µg/mL | 64 µg/mL | > 128 µg/mL
Cc1ccc(C(C)C)cc1OCCCC[N+](C)(C)CC(=O)N1CCOCC1.[Br-] | > 128 µg/mL | > 128 µg/mL | > 128 µg/mL | > 128 µg/mL | > 128 µg/mL | > 128 µg/mL
CCCN(CCC)C(=O)C[N+](C)(C)CCCCCOc1cc(C(C)C)ccc1C.[Br-] | 16 µg/mL | > 128 µg/mL | 8 µg/mL | 16 µg/mL | 8 µg/mL | 64 µg/mL
CCCCCCNC(=O)C[N+](C)(C)CCCOc1cc(C)ccc1C(C)C.[Br-] | 8 µg/mL | 32 µg/mL | 4 µg/mL | 4 µg/mL | 4 µg/mL | 16 µg/mL
CCCCCCN(CCCCCC)C(=O)C[N+](C)(C)CCCCCOc1cc(C)ccc1C(C)C.[Br-] | > 128 µg/mL | > 128 µg/mL | > 128 µg/mL | > 128 µg/mL | > 128 µg/mL | > 128 µg/mL
CCCCCCN(CCCCCC)C(=O)C[N+](C)(C)CCCCOc1cc(C)ccc1C(C)C.[Br-] | > 128 µg/mL | > 128 µg/mL | > 128 µg/mL | > 128 µg/mL | > 128 µg/mL | > 128 µg/mL
CCCCCCNC(=O)C[N+](C)(C)CCCCCOc1cc(C(C)C)ccc1C.[Br-] | 8 µg/mL | 16 µg/mL | 2 µg/mL | 2 µg/mL | 2 µg/mL | 8 µg/mL
Cc1ccc(C(C)C)cc1OCCCCC[N+](C)(C)CC(=O)N1CCSCC1.[Br-] | 64 µg/mL | > 128 µg/mL | 32 µg/mL | 128 µg/mL | 32 µg/mL | 128 µg/mL
Cc1ccc(C(C)C)c(OCCCCC[N+](C)(C)CC(=O)N(CC(C)C)CC(C)C)c1.[Br-] | 8 µg/mL | 128 µg/mL | 4 µg/mL | 2 µg/mL | 2 µg/mL | 32 µg/mL
CCCCCNC(=O)C[N+](C)(C)CCCCCOc1cc(C(C)C)ccc1C.[Br-] | 16 µg/mL | 64 µg/mL | 8 µg/mL | 8 µg/mL | 4 µg/mL | 16 µg/mL
CCCCNC(=O)C[N+](C)(C)CCCCOc1cc(C(C)C)ccc1C.[Br-] | 64 µg/mL | > 128 µg/mL | 32 µg/mL | 64 µg/mL | 16 µg/mL | 64 µg/mL
Cc1ccc(C(C)C)c(OCCCCC[N+](C)(C)CC(=O)N2CCOCC2)c1.[Br-] | > 128 µg/mL | > 128 µg/mL | 128 µg/mL | > 128 µg/mL | 128 µg/mL | > 128 µg/mL
Cc1ccc(C(C)C)cc1OCCC[N+](C)(C)CC(=O)N(CC(C)C)CC(C)C.[Br-] | 16 µg/mL | > 128 µg/mL | 16 µg/mL | 16 µg/mL | 4 µg/mL | 64 µg/mL
CCCCCCCNC(=O)C[N+](C)(C)CCCCCOc1cc(C)ccc1C(C)C.[Br-] | 8 µg/mL | 32 µg/mL | 4 µg/mL | 16 µg/mL | 4 µg/mL | 16 µg/mL
Cc1ccc(C(C)C)c(OCCC[N+](C)(C)CC(=O)N(C(C)C)C(C)C)c1.[Br-] | 32 µg/mL | > 128 µg/mL | 16 µg/mL | 16 µg/mL | 16 µg/mL | 128 µg/mL
CCCNC(=O)C[N+](C)(C)CCCOc1cc(C(C)C)ccc1C.[Br-] | > 128 µg/mL | > 128 µg/mL | 128 µg/mL | > 128 µg/mL | 128 µg/mL | > 128 µg/mL
CCCN(CCC)C(=O)C[N+](C)(C)CCCCOc1cc(C(C)C)ccc1C.[Br-] | 64 µg/mL | > 128 µg/mL | 32 µg/mL | 32 µg/mL | 16 µg/mL | 128 µg/mL

SMILES | MIC (Enterococcus) | MIC (Pseudomonas aeruginosa) | MIC (Enterococcus faecalis) | MIC (Staphylococcus aureus [1]) | MIC (Staphylococcus aureus [2]) | MIC (Escherichia coli)
CCCCCNC(=O)C[N+](C)(C)CCCOc1cc(C)ccc1C(C)C.[Br-] | 32 µg/mL | > 128 µg/mL | 16 µg/mL | 16 µg/mL | 8 µg/mL | 32 µg/mL
CCCCCCNC(=O)C[N+](C)(C)CCCOc1cc(C(C)C)ccc1C.[Br-] | 8 µg/mL | 32 µg/mL | 4 µg/mL | 8 µg/mL | 4 µg/mL | 16 µg/mL
CCCCCCN(CCCCCC)C(=O)C[N+](C)(C)CCCOc1cc(C(C)C)ccc1C.[Br-] | 1 µg/mL | 16 µg/mL | 0.25 µg/mL | 8 µg/mL | 0.25 µg/mL | 4 µg/mL
CCCCN(CCCC)C(=O)C[N+](C)(C)CCCOc1cc(C(C)C)ccc1C.[Br-] | 16 µg/mL | > 128 µg/mL | 8 µg/mL | 8 µg/mL | 4 µg/mL | 64 µg/mL
CCCNC(=O)C[N+](C)(C)CCCCOc1cc(C)ccc1C(C)C.[Br-] | > 128 µg/mL | > 128 µg/mL | 128 µg/mL | 128 µg/mL | 64 µg/mL | > 128 µg/mL
CCCCCCN(CCCCCC)C(=O)C[N+](C)(C)CCCOc1cc(C)ccc1C(C)C.[Br-] | 32 µg/mL | > 128 µg/mL | 16 µg/mL | > 128 µg/mL | 16 µg/mL | 128 µg/mL
Cc1ccc(C(C)C)c(OCCC[N+](C)(C)CC(=O)N2CCOCC2)c1.[Br-] | > 128 µg/mL | > 128 µg/mL | > 128 µg/mL | > 128 µg/mL | > 128 µg/mL | 128 µg/mL
Cc1ccc(C(C)C)cc1OCCCC[N+](C)(C)CC(=O)N(CC(C)C)CC(C)C.[Br-] | 8 µg/mL | > 128 µg/mL | 8 µg/mL | 4 µg/mL | 4 µg/mL | 64 µg/mL
CCCNC(=O)C[N+](C)(C)CCCCCOc1cc(C(C)C)ccc1C.[Br-] | 128 µg/mL | > 128 µg/mL | 64 µg/mL | 128 µg/mL | 32 µg/mL | 128 µg/mL
CCCCN(CCCC)C(=O)C[N+](C)(C)CCCCCOc1cc(C(C)C)ccc1C.[Br-] | 32 µg/mL | 32 µg/mL | 2 µg/mL | 2 µg/mL | 1 µg/mL | 16 µg/mL
Cc1ccc(C(C)C)cc1O [CARVACROL] | > 128 µg/mL | > 128 µg/mL | 128 µg/mL (≈ 852 µM) | > 128 µg/mL | > 128 µg/mL | 128 µg/mL (≈ 852 µM)
CCCCNC(=O)C[N+](C)(C)CCCOc1cc(C(C)C)ccc1C.[Br-] | 64 µg/mL | > 128 µg/mL | 32 µg/mL | 64 µg/mL | 32 µg/mL | 64 µg/mL
Cc1ccc(C(C)C)cc1OCCCCC[N+](C)(C)CC(=O)N(CC(C)C)CC(C)C.[Br-] | 64 µg/mL | 64 µg/mL | 4 µg/mL | 4 µg/mL | 2 µg/mL | 32 µg/mL
CCCCCNC(=O)C[N+](C)(C)CCCCOc1cc(C)ccc1C(C)C.[Br-] | 32 µg/mL | > 128 µg/mL | 16 µg/mL | 8 µg/mL | 8 µg/mL | 32 µg/mL
CCCN(CCC)C(=O)C[N+](C)(C)CCCOc1cc(C)ccc1C(C)C.[Br-] | 128 µg/mL | > 128 µg/mL | 32 µg/mL | 16 µg/mL | 16 µg/mL | 128 µg/mL
CCCN(CCC)C(=O)C[N+](C)(C)CCCOc1cc(C(C)C)ccc1C.[Br-] | 128 µg/mL | > 128 µg/mL | 32 µg/mL | 64 µg/mL | 32 µg/mL | 128 µg/mL
